Assay results taken from patent publication US9980943B2, “Methods of treating muscular dystrophy” (BOARD OF REGENTS OF THE NEVADA SYSTEM OF HIGHER EDUCATION, …, priority 2013, dated 2018).

Key:
Assay type in all cases: cell-based, mouse
[1] = tested on: β-galactosidase in CMV-LacZ C2C12 myoblasts; test: CMV-LacZ secondary screen in C2C12 myoblasts (β-Gal stabilizing assay); conditions: CMV-LacZ C2C12 myoblasts
Procedure, shortened: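 β-Gal level was the read-out, measured in a clonal C2C12 line expressing LacZ from a CMV promoter. Dose-response curves used six concentrations, 0.5 μM up to 40 μM, with duplicate points.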

[2] = tested on: β-galactosidase in CMV-LacZ C2C12 myotubes; test: CMV-LacZ secondary screen in C2C12 myotubes (β-Gal stabilizing assay); conditions: C2C12 CMV-LacZ myotubes, fold relative to DMSO
Procedure, shortened: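 Stable CMV-LacZ C2C12 clone; six-point curve 0.5–40 μM; duplicates.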

[3] = tested on: α7 integrin (LacZ reporter in α7+/LacZ myotubes); test: Myotube α7 integrin FDG assay (Burkin assay in myotubes, 96-well); conditions: myotubes
[4] = tested on: α7 integrin (LacZ reporter in α7βgal+/− myoblasts); test: Myoblast α7+/LacZ integrin FDG assay (Burkin assay in myoblasts, 96-well); conditions: α7+/LacZ myoblasts, 96-well

COc1cc(NC(=O)OCc2ccccc2)c2ncccc2c1 [MLS002667707-01]
CMV-LACZ in Myoblasts (β-galactosidase activity relative to DMSO) ([1]; 0.5 uM): 1.1434 | CMV-LACZ in Myoblasts (β-galactosidase activity relative to DMSO) ([1]; 1 uM): 0.6763 | CMV-LACZ in Myoblasts (β-galactosidase activity relative to DMSO) ([1]; 5 uM): 1.1897 | CMV-LACZ in Myoblasts (β-galactosidase activity relative to DMSO) ([1]; 10 uM): 1.0803 | CMV-LACZ in Myoblasts (β-galactosidase activity relative to DMSO) ([1]; 20 uM): 1.0044 | CMV-LACZ in Myoblasts (β-galactosidase activity relative to DMSO) ([1]; 40 uM): 1.1226 | CMV-LACZ in Myotubes, signal relative to DMSO ([2]; 0.5 uM): 0.8905 | CMV-LACZ in Myotubes, signal relative to DMSO ([2]; 1 uM): 1.0590 | CMV-LACZ in Myotubes, signal relative to DMSO ([2]; 5 uM): 0.9449 | CMV-LACZ in Myotubes, signal relative to DMSO ([2]; 10 uM): 1.0227 | CMV-LACZ in Myotubes, signal relative to DMSO ([2]; 20 uM): 1.1576 | CMV-LACZ in Myotubes, signal relative to DMSO ([2]; 40 uM): 1.1071 | Burkin Assay in Myotubes, α7 integrin LacZ reporter signal relative to DMSO ([3]; 0.5 uM): 0.9955 | Burkin Assay in Myotubes, α7 integrin LacZ reporter signal relative to DMSO ([3]; 1 uM): 1.01 | Burkin Assay in Myotubes, α7 integrin LacZ reporter signal relative to DMSO ([3]; 5 uM): 0.8939 | Burkin Assay in Myotubes, α7 integrin LacZ reporter signal relative to DMSO ([3]; 10 uM): 0.954 | Burkin Assay in Myotubes, α7 integrin LacZ reporter signal relative to DMSO ([3]; 20 uM): 0.8049 | Burkin Assay in Myotubes, α7 integrin LacZ reporter signal relative to DMSO ([3]; 40 uM): 0.7617 | Burkin Assay in Myoblasts, signal relative to DMSO ([4]; 0.5 uM): 1.0156 | Burkin Assay in Myoblasts, signal relative to DMSO ([4]; 1 uM): 0.9172 | Burkin Assay in Myoblasts, signal relative to DMSO ([4]; 5 uM): 1.02 | Burkin Assay in Myoblasts, signal relative to DMSO ([4]; 10 uM): 1.235 | Burkin Assay in Myoblasts, signal relative to DMSO ([4]; 20 uM): 0.9347 | Burkin Assay in Myoblasts, signal relative to DMSO ([4]; 40 uM): 0.8314

COc1ccc(N2CCN(C(=O)c3cc(C)on3)CC2)cc1 [MLS001124046-01]
CMV-LACZ in Myoblasts (β-galactosidase activity relative to DMSO) ([1]; 0.5 uM): 0.8409 | CMV-LACZ in Myoblasts (β-galactosidase activity relative to DMSO) ([1]; 1 uM): 1.2650 | CMV-LACZ in Myoblasts (β-galactosidase activity relative to DMSO) ([1]; 5 uM): 0.9307 | CMV-LACZ in Myoblasts (β-galactosidase activity relative to DMSO) ([1]; 10 uM): 0.8501 | CMV-LACZ in Myoblasts (β-galactosidase activity relative to DMSO) ([1]; 20 uM): 0.9881 | CMV-LACZ in Myoblasts (β-galactosidase activity relative to DMSO) ([1]; 40 uM): 1.0807 | fold induction at 0.5 µM ([2]; Mus musculus, C2C12, read-out: CMV-LACZ in Myotubes, signal relative to DMSO, 0.5 uM): 1.02 | fold induction at 1 µM ([2]; Mus musculus, C2C12, read-out: CMV-LACZ in Myotubes, signal relative to DMSO, 1 uM): 1.02 | fold induction at 5 µM ([2]; Mus musculus, C2C12, read-out: CMV-LACZ in Myotubes, signal relative to DMSO, 5 uM): 0.84 | fold induction at 10 µM ([2]; Mus musculus, C2C12, read-out: CMV-LACZ in Myotubes, signal relative to DMSO, 10 uM): 1.02 | fold induction at 20 µM ([2]; Mus musculus, C2C12, read-out: CMV-LACZ in Myotubes, signal relative to DMSO, 20 uM): 1.09 | fold induction at 40 µM ([2]; Mus musculus, C2C12, read-out: CMV-LACZ in Myotubes, signal relative to DMSO, 40 uM): 0.981 | fold induction at 0.5 µM ([3]; Mus musculus, Myotube, 0.5 uM, read-out: Burkin Assay in Myotubes, α7 integrin LacZ reporter signal relative to DMSO): 1.15 | fold induction at 1 µM ([3]; Mus musculus, Myotube, 1 uM, read-out: Burkin Assay in Myotubes, α7 integrin LacZ reporter signal relative to DMSO): 1.1 | fold induction at 5 µM ([3]; Mus musculus, Myotube, 5 uM, read-out: Burkin Assay in Myotubes, α7 integrin LacZ reporter signal relative to DMSO): 1.42 | fold induction at 10 µM ([3]; Mus musculus, Myotube, 10 uM, read-out: Burkin Assay in Myotubes, α7 integrin LacZ reporter signal relative to DMSO): 1.02 | fold induction at 20 µM ([3]; Mus musculus, Myotube, 20 uM, read-out: Burkin Assay in Myotubes, α7 integrin LacZ reporter signal relative to DMSO): 0.893 | fold induction at 40 µM ([3]; Mus musculus, Myotube, 40 uM, read-out: Burkin Assay in Myotubes, α7 integrin LacZ reporter signal relative to DMSO): 0.92 | fold induction at 0.5 µM ([4]; Mus musculus, Myoblast, 48 h, 0.5 uM, read-out: Burkin Assay in Myoblasts, signal relative to DMSO): 1.06 | fold induction at 1 µM ([4]; Mus musculus, Myoblast, 48 h, 1 uM, read-out: Burkin Assay in Myoblasts, signal relative to DMSO): 1.16 | fold induction at 5 µM ([4]; Mus musculus, Myoblast, 48 h, 5 uM, read-out: Burkin Assay in Myoblasts, signal relative to DMSO): 1.08 | fold induction at 10 µM ([4]; Mus musculus, Myoblast, 48 h, 10 uM, read-out: Burkin Assay in Myoblasts, signal relative to DMSO): 1.01 | fold induction at 20 µM ([4]; Mus musculus, Myoblast, 48 h, 20 uM, read-out: Burkin Assay in Myoblasts, signal relative to DMSO): 1.1 | fold induction at 40 µM ([4]; Mus musculus, Myoblast, 48 h, 40 uM, read-out: Burkin Assay in Myoblasts, signal relative to DMSO): 1.07
